A short description of data set [1]: Single-dose crossover comparative bioavailability study, fixed combination vs co-administered reference drugs, plasma HPLC-MS/MS. As for the experimental part:
In another embodiment of the invention, bioavailability tests are performed to determine whether there are differences in the magnitude and rate of absorption between the test product of this invention (fixed dose combination) and co-administration of reference drugs that impact the bioavailability of the drugs upon administration.
On the other hand, the determination of the pharmacokinetic parameters of Cmax and area under the plasma concentration curve with respect to time (ABC0-t) are determined, which allow characterizing the bioavailability of the drug of this invention from its dosage form, in terms of speed and degree of respective absorption. Therefore, the purpose of the bioavailability tests is to determine if there are differences in the magnitude and speed of absorption between the test product of the present invention (fixed combination) and the co-administration of reference drugs that impact the bioavailability of the drugs when administered under fasting conditions.
A total of 44 healthy volunteers (27 men and 17 women) were randomized in the study. […] After a period of 7 half-lives, the pharmacokinetic effect of washout can be completely disregarded. Each volunteer received the treatments under study according to randomization.
The pharmacokinetic parameters were determined through independent model methods. Descriptive statistics are presented below in Tables 19-21.

For data set [2] the following is noted: according to biopharmaceutical classification; cited from earlier work.
For data set [3] the following is noted: reported, in Mexican population; cited from earlier work.

`CCC1=C(C)CN(C(=O)NCCc2ccc(S(=O)(=O)NC(=O)N[C@H]3CC[C@H](C)CC3)cc2)C1=O` [glimepiride]: in data set [1] (both, human, in vivo), the “Intrasubject Variability Coefficient, Ln (ABC0-t) of glimepiride” value is listed as 15.58% and the “Intrasubject Variability Coefficient, Ln (Cmax) of glimepiride” value turned out to be 28.21%. Besides, the solubility entry in data set [2] is on record as “low”. The elimination half-life in data set [3] was 7.5 ± 4 h.
As to `N#C[C@@H]1CCCN1C(=O)CN[C@@]12C[C@@H]3C[C@@H](CC(O)(C3)C1)C2` [vildagliptin], in data set [1] (both, human, in vivo), the “Intrasubject Variability Coefficient, Ln (Cmax)” value is on record as 19.12%. The “Intrasubject Variability Coefficient, Ln (ABC0-t)” value in data set [1] (vildagliptin pharmacokinetic parameter) worked out at 9.14%. In addition, the solubility entry in data set [2] is recorded as “high”.

The values are drawn from patent US20230310462A1, “COMBINATION DRUG FOR THE CONTROL AND MANAGEMENT OF TYPE 2 DIABETES MELLITUS” (LABORATORIOS SILANES S.A. DE C.V., priority 2020, published 2023).
